This note sets out measurements from ChEMBL document CHEMBL1641574 (Bioorg Med Chem, 2011).

Holding throughout (format): cell-based
The target of experiment [1] is T1, Sodium-dependent dopamine transporter (Homo sapiens, UniProt Q01959). In words: Displacement of [3H]WIN-35428 from human DAT stably expressed in mouse N2A cells by scintillation countnig. A general note: In a radioligand displacement assay an active substance lowers the binding of a labelled ligand.
For experiment [2], the target named is T1, Sodium-dependent dopamine transporter. In words: Inhibition of [3H]dopamine uptake at human DAT expressed in mouse N2A cells.
For experiment [3] the target is unchanged. In words: Binding affinity to human DAT expressed in UV irradiated mouse N2A cells by photoaffinity labeling assay. Particulars: tested as the 125I-labelled form.

The Ki is a dissociation constant, usually derived from enzyme kinetics or from competition with a known ligand. For orientation: IC50 means the point on the concentration scale where inhibition reaches its midpoint. Low values mean greater potency, high ones weaker potency.

Active and inactive are the calls of the source. The rule behind the calls is not given here.

T1 sequence (Q01959 whole entry): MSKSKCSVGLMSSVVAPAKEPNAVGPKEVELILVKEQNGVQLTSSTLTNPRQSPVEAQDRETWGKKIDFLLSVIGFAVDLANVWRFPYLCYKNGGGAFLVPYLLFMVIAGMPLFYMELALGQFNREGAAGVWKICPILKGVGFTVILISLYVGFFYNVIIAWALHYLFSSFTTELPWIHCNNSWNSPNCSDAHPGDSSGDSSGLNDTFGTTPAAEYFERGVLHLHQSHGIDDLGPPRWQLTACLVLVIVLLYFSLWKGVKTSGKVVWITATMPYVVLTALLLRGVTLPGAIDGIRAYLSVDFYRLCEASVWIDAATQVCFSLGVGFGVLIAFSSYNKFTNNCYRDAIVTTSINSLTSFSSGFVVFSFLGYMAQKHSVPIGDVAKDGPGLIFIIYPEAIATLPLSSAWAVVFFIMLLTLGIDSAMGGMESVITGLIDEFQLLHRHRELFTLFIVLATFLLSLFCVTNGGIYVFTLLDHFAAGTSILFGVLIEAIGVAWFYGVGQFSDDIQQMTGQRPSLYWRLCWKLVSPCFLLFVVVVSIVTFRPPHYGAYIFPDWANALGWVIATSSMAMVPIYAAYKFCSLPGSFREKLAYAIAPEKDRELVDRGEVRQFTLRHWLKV

In experiment [1], `COC(=O)[C@H](c1ccc(I)cc1)[C@H]1CCCCN1Cc1ccccc1N=[N+]=[N-]` (racemic) displayed an inhibition constant (Ki) of 517 nM. The IC50 in experiment [2] is 1230 nM.
For `COC(=O)[C@H](c1ccc(I)cc1)[C@H]1CCCCN1Cc1cccc(N=[N+]=[N-])c1` (racemic), the Ki in experiment [1] is 2750 nM. This compound also gave an IC50 in experiment [2] of 7970 nM.
For the compound `COC(=O)[C@H](c1cccc(I)c1)[C@H]1CCCCN1Cc1cccc(N=[N+]=[N-])c1` (racemic), the affinity in experiment [1] corresponds to a Ki of 2060 nM. This compound also displayed an IC50 in experiment [2] of 4630 nM.
`COC(=O)[C@H](c1ccc(I)cc1)[C@H]1CCCCN1Cc1ccc(N=[N+]=[N-])cc1` (racemic): in experiment [1], the Ki was determined as 363 nM. For the same compound, the half-maximal inhibitory concentration (IC50) in experiment [2] came out at 2760 nM. For the same compound, the result in experiment [3] was Active.
Compound `COC(=O)[C@H](c1cccc(I)c1)[C@H]1CCCCN1Cc1ccccc1N=[N+]=[N-]` (racemic) gave an inhibition constant (Ki) in experiment [1] of 1110 nM. In addition, the IC50 in experiment [2] stood at 2700 nM.
Consider `COC(=O)[C@H](c1cccc(I)c1)[C@H]1CCCCN1` (racemic), for which the Ki in experiment [1] is 4.5 nM. The compound also came in with an IC50 in experiment [2] of 14 nM.
In the case of `COC(=O)[C@H](c1cccc(I)c1)[C@H]1CCCCN1Cc1ccc(N=[N+]=[N-])cc1` (racemic), the Ki in experiment [1] amounted to 658 nM. The same compound returned a half-maximal inhibitory concentration (IC50) in experiment [2] of 1830 nM.
The matching figures for `COC(=O)[C@H](c1ccc(I)cc1)[C@H]1CCCCN1` (racemic): 14 nM and 11 nM.
